Legend:
Assay in all cases: Histone deacetylase activity, continuous trypsin-coupled assay
Format in all cases: biochemical
Settings in all cases: 15 minutes preincubation; substrate acetyl-Gly-Ala-(N-acetyl-Lys)-AMC
HDAC6 = target: T1, HDAC6 (Homo sapiens, UniProt Q9UBN7)
T1 sequence (Q9UBN7 1-1215): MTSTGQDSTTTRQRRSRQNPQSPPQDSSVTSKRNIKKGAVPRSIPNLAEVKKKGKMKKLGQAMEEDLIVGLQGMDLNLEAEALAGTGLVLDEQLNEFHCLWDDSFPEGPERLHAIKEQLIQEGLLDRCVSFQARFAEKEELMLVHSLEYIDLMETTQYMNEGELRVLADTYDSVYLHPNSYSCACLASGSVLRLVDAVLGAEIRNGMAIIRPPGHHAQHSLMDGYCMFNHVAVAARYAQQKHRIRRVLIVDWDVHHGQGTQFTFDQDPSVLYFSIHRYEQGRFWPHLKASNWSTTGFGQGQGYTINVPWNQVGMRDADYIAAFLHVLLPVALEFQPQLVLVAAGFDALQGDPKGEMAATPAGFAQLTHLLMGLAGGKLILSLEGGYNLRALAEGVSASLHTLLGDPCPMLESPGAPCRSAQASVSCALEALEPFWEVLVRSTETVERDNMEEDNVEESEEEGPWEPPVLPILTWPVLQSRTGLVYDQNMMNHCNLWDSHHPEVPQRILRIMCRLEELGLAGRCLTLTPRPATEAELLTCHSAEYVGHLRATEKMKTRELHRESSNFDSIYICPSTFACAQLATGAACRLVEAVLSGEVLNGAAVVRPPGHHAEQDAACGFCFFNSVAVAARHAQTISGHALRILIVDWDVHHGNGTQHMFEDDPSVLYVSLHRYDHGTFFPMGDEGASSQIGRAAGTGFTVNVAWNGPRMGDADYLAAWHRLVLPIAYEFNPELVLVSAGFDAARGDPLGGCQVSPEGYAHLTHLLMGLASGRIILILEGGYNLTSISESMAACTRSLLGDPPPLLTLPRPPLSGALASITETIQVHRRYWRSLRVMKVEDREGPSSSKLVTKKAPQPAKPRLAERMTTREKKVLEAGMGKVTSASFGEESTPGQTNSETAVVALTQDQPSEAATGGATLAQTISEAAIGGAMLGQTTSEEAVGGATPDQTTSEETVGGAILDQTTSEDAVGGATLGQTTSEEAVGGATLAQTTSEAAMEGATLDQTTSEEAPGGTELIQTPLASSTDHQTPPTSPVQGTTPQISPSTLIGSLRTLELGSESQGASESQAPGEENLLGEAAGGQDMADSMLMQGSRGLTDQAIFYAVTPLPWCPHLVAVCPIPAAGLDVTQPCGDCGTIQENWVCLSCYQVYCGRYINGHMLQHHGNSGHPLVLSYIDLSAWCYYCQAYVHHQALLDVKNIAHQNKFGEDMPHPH
Experimental: (§1) HDAC activity was measured using a continuous trypsin-coupled assay that has been described in detail previously (US 20070281934; Schultz et. al., Biochemistry, 43 (34), 11083-11091, 2004; Kim et al. (2006), Methods Mol. Biol., 325:273-283). For inhibitor characterization, measurements were performed in a reaction volume of 100 μL using 96-well assay plates in a fluorescence plate reader. For each isozyme, the HDAC protein in reaction buffer (50 mM HEPES, 100 mM KCl, 0.001% Tween-20, 5% DMSO, pH 7.4, supplemented with bovine serum albumin at concentrations of 0-0.05%, was mixed with inhibitor at various concentrations and allowed to incubate for 15 minutes. Trypsin was added to a final concentration of 50 nM, and acetyl-Gly-Ala-(N-acetyl-Lys)-AMC was added to a final concentration of 25-100 μM to initiate the reaction. After a 30 minute lag time, the fluorescence was measured over a 30 minute time frame using an excitation wavelength of 355 nm and a detection wavelength of 460 nm. The increase in fluorescence with time was used as the measure of the reaction rate. Inhibition constants Ki(app) were obtained using the program BatchKi (Biokin, Pullman, Wash.).

HDAC1 = HDAC1 (Homo sapiens, UniProt Q13547)
Experimental: as §1

HDAC8 = target: T2, HDAC8 (Homo sapiens, UniProt Q9BY41)
T2 sequence (Q9BY41 1-377): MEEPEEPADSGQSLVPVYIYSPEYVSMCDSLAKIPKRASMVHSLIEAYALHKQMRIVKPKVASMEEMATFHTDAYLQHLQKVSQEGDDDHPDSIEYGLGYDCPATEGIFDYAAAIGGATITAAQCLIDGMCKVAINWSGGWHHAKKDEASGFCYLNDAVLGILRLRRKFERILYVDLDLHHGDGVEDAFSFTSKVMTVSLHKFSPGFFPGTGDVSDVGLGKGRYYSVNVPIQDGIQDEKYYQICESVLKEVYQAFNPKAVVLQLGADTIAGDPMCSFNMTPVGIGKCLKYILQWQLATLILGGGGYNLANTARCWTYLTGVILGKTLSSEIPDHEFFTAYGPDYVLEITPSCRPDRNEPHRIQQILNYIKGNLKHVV
Experimental: as §1

Sequence of HDAC1 (Q13547 whole entry, species assumed): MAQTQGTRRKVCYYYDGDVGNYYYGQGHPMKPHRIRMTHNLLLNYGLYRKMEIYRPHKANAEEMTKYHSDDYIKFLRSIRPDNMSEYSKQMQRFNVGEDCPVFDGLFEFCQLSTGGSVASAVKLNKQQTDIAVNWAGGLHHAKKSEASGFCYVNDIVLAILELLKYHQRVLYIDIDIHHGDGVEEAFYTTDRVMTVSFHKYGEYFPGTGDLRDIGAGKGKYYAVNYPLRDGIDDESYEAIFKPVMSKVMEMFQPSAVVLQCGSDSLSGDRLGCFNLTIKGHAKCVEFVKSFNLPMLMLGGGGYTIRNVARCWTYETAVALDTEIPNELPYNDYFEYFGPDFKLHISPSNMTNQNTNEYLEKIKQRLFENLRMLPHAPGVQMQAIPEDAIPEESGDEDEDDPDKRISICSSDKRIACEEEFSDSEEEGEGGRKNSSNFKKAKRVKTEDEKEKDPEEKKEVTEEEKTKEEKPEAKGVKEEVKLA

IC50 (HDAC6): > 10 µM
IC50 (HDAC1): > 10 µM
IC50 (HDAC8): < 1 µM
SMILES: O=C(NO)c1ccc2ccn(CCOc3ccccc3)c2c1 [Compound 316, N-hydroxy-1-(2-phenoxyethyl)-1H-indole-6-carboxamide]
